Where two headings read alike, the source gives them in different places.
Tests used:
HSD-1 [1] = molecular target: T1, HSD-1 (Homo sapiens, UniProt P28845); test: Surface plasmon resonance binding kinetics in presence of NADPH (residence time); details: 300 μM NADPH, reciprocal of the dissociation rate constant
Source text: Pseudo-irreversible HSD-1 inhibitors can be identified via in vitro enzyme kinetics evaluation, in which they are expected to show longer enzyme residence times compared to other HSD-1 inhibitors. Surface plasmon resonance (SPR) is the resonant oscillation of conduction electrons at the interface between negative and positive permittivity material stimulated by incident light. When a protein is bound to a surface, SPR can be used to detect ligand binding to the protein. […] Association and dissociation of test compounds were monitored in the presence of 300 µM NADPH throughout the experiment.

[2] = cited from earlier work; for plasma exposures after single doses, dose proportionality: low single doses; for estimated target capacity / capacity of saturable distribution: population pharmacokinetics model
[3] = INCB-13739 diabetes; R05093151 non-alcoholic fatty liver disease; AZD4017 impaired wound healing; ABT-384 dementia; BI-187004 diabetes; cited from earlier work
HSD-1 [4] = molecular target: T1, HSD-1; test: Target-mediated drug disposition (TMDD) population PK / PK-PD model; details: in vivo
[5] = system: urine tetrahydrocortisone; details: healthy adults and elderly subjects; 7-21 days; cited from earlier work
brain HSD-1 = molecular target: T2, brain HSD-1 (Homo sapiens, UniProt P28845); details: healthy adults; cited from earlier work
T2 construct: Brain HSD-1 occupancy following a single dose of SPI-62 3 mg; from tissue; host or cells: brain in vivo
T2 sequence (P28845 whole entry): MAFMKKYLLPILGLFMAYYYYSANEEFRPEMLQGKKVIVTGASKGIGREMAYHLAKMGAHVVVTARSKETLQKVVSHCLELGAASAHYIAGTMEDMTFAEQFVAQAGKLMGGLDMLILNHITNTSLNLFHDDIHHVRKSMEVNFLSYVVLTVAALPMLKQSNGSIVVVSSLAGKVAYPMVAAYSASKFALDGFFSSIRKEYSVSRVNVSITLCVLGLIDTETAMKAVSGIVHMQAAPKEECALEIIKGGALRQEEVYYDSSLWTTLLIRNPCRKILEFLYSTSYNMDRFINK

[6] = cynomolgus monkey liver; cited from earlier work
skin HSD-1 = skin HSD-1 (Homo sapiens, UniProt P28845); details: in vivo; cited from earlier work
skin HSD-1, sequence (P28845 whole entry): as above

liver HSD-1 = liver HSD-1 (Homo sapiens, UniProt P28845); details: same subjects, multiple doses; cited from earlier work
liver HSD-1, sequence (P28845 whole entry): as above

adipose HSD-1 = molecular target: T3, adipose HSD-1 (Homo sapiens, UniProt P28845); details: in vivo; cited from earlier work
T3 construct: infused continuously into subcutaneous abdominal adipose tissue via microdialysis catheters; from tissue; host or cells: human subcutaneous abdominal adipose tissue, in vivo
T3 sequence (P28845 whole entry, the tested form may be a part): as the sequence (P28845 whole entry) above

rabbit = details: cited from earlier work
mouse = details: cited from earlier work
[7] = read-out: Residence Time (converted)

T1 sequence (P28845 whole entry): as above

O=C(c1csc(-c2cn[nH]c2)c1)N1[C@@H]2CC[C@H]1C[C@](O)(c1ncccn1)C2 [UE-2343, (5-(1H-pyrazol-4-yl)thiophen-3-yl)((1R,3r,5S)-3-hydroxy-3-(pyrimidin-2-yl)-8-azabicyclo[3.2.1]octan-8-yl)methanone]
residence time (HSD-1 [1]): 9.05 min | plasma levels after single doses of 2 and 5 mg ([2]; in vivo): below the level of quantification | plasma exposures after single doses, dose proportionality [2]: greater than dose-proportional | mean maximum plasma concentration ([2]; single 10 mg dose): 40.4 ng/mL

N#Cc1ccc2c(c1)[C@H]1CCCN(C(=O)c3ccc4nc[nH]c4c3)[C@H]1C2 [BI-187004, (4aR,9aS)-1-(1H-benzo[d]imidazole-6-carbonyl)-2,3,4,4a,9,9a-hexahydro-1H-indeno[2,1-b]pyridine-6-carbonitrile]
clinical trial efficacy [3]: lack of efficacy | plasma exposures after single doses, dose proportionality [2]: substantially below

CC(C)[C@]1(C)SC(N[C@H]2C[C@@H]3CC[C@H]2C3)=NC1=O [AMG-221, (S,E)-2-(((1S,2S,4R)-bicyclo[2.2.1]heptan-2-yl)imino)-5-isopropyl-5-methylthiazolidin-4-one]
plasma exposures after single doses, dose proportionality [2]: nonlinearity of pharmacokinetics

CC(C)(C(=O)N[C@H]1C2CC3CC1C[C@@](C(N)=O)(C3)C2)N1CCN(c2ccc(C(F)(F)F)cn2)CC1 [ABT-384, (1s,3R,4r,5S,7s)-4-(2-methyl-2-(4-(5-(trifluoromethyl)pyridin-2-yl)piperazin-1-yl)propanamido)adamantane-1-carboxamide]
Kd lower than the Ki (HSD-1 [4]): approximately 60 fold | residence time (HSD-1 [1]; [7]): 43.5 min | clinical trial efficacy [3]: lack of efficacy | liver cortisone levels (urine tetrahydrocortisone) [5]: increased substantially | time after cessation of daily administration up to which complete brain HSD-1 inhibition was observed (brain HSD-1): up to 40 hours | retention in liver [6]: at least 77 days | plasma levels after multiple doses / steady state, dose proportionality ([2]; in vivo): approximately dose-proportional | plasma exposures after single doses, dose proportionality [2]: substantial non-linearity | estimated target capacity / capacity of saturable distribution [2]: ~1 mg

CCCSc1nc(N2CCC[C@@H](CC(=O)O)C2)ccc1C(=O)NC1CCCCC1 [AZD4017, (S)-2-(1-(5-(cyclohexylcarbamoyl)-6-(propylthio)pyridin-2-yl)piperidin-3-yl)acetic acid]
skin HSD-1 inhibition after multiple doses (skin HSD-1): no skin HSD-1 inhibition | liver HSD-1 inhibition (liver HSD-1): maximal | adipose HSD-1 inhibition after a single dose (adipose HSD-1): demonstrated adipose HSD-1 inhibition | adipose HSD-1 inhibition after repeated dosing (adipose HSD-1): no sustained inhibitory effect | tachyphylaxis of human adipose HSD-1 inhibition with multiple dosing (adipose HSD-1): showed tachyphylaxis

O=C(CC1(c2ccccc2)C2CC3CC1CC(C2)C3O)N1CC(O)C1 (centres unmarked) [BMS-816336]
residence time (HSD-1 [1]): 2.15 min

F[C@H]1C[C@@](c2ccc(Cl)cc2)(c2nnc(C3CC3)n2C2CC2)C1 [MK-0916, 3-((1s,3s)-1-(4-chlorophenyl)-3-fluorocyclobutyl)-4,5-dicyclopropyl-4H-1,2,4-triazole]
residence time (HSD-1 [1]; [7]): 3.25 min | plasma levels after multiple doses / steady state, dose proportionality ([2]; in vivo): approximately dose-proportional | plasma exposures after single doses, dose proportionality [2]: substantial non-linearity | estimated target capacity / capacity of saturable distribution [2]: ~3 mg

CC1(C)[C@@H](O[C@H]2O[C@H](C(=O)O)[C@@H](O)[C@H](O)[C@H]2O[C@@H]2O[C@H](C(=O)O)[C@@H](O)[C@H](O)[C@H]2O)CC[C@]2(C)[C@H]3C(=O)C=C4[C@@H]5C[C@@](C)(C(=O)O)CC[C@]5(C)CC[C@@]4(C)[C@]3(C)CC[C@@H]12 [Glycyrrhizin]
intraocular pressure increase associated with intravitreal triamcinolone (rabbit): partially prevented

CC(C)(O)c1cccn2c(C3(c4ccc(Cl)cc4)CC3)nnc12 [BMS-823778, 2-(3-(1-(4-chlorophenyl)cyclopropyl)-[1,2,4]triazolo[4,3-a]pyridin-8-yl)propan-2-ol]
residence time (HSD-1 [1]; [7]): 2.03 min | plasma levels after a single 0.1 or 0.5 mg dose ([2]; in vivo): not detected | plasma levels after multiple doses / steady state, dose proportionality ([2]; in vivo): dose proportional | plasma exposures after single doses, dose proportionality [2]: less than dose proportional

CC1(C)[C@@H](OC(=O)CCC(=O)O)CC[C@]2(C)[C@H]3C(=O)C=C4[C@@H]5C[C@@](C)(C(=O)O)CC[C@]5(C)CC[C@@]4(C)[C@]3(C)CC[C@@H]12 [Carbenoxolone]
GC-induced wound healing impairment (mouse): prevented

CC(C)(C)c1c(C(=O)NC2C3CC4CC(C3)CC2C4)cnn1-c1ccc(C(=O)O)cc1 (centres unmarked) [AZD8329, 4-(4-(((1r,3r,5r,7r)-adamantan-2-yl)carbamoyl)-5-(tert-butyl)-1H-pyrazol-1-yl)benzoic acid]
residence time (HSD-1 [1]; [7]): 3.45 min | adipose HSD-1 inhibition after repeated dosing (adipose HSD-1): lost | tachyphylaxis of human adipose HSD-1 inhibition with multiple dosing (adipose HSD-1): showed tachyphylaxis

CC1CN(CC(=O)NC2C3CC4CC2CC(C(N)=O)(C4)C3)S(=O)(=O)N(c2c(Cl)cc(C(F)(F)F)cc2Cl)C1 [KR-67607, (1s,3R,4s,5S,7s)-4-(2-(6-(2,6-dichloro-4-(trifluoromethyl)phenyl)-4-methyl-1,1-dioxido-1,2,6-thiadiazinan-2-yl)acetamido)adamantane-1-carboxamide]
residence time (HSD-1 [1]; [7]): 8.63 min

N#Cc1ccc(-c2ccc(S(=O)(=O)Nc3cccc(N)n3)cc2)cc1 [PF915275]
residence time (HSD-1 [1]): 5.07 min | GC-induced wound healing impairment (mouse): prevented

CNC(=O)c1ccc(-c2ccc(C3(C(=O)N4CC[C@@]5(C4)OC(=O)c4ccccc45)CC3)cc2)cn1 [INCB-13739]
residence time (HSD-1 [1]): 4.53 min | clinical trial efficacy [3]: support efficacy

CCS(=O)(=O)CCCC12CCC(c3nnc(-c4ccccc4C(F)(F)F)n3C)(CC1)CC2 [MK-0736, 3-(4-(3-(ethylsulfonyl)propyl)bicyclo[2.2.2]octan-1-yl)-4-methyl-5-(2-(trifluoromethyl)phenyl)-4H-1,2,4-triazole]
plasma exposures after single doses, dose proportionality [2]: non-linear, saturable distribution PK
